Results published in US20120157401A1, “METHODS FOR TREATING NEUROFIBROMATOSIS” (PTC Therapeutics, Inc., priority 2009, published 2012).
pEC50: −log10 of the molar value. Read-outs that look alike come from different tables or passages of the source.

Test system: hypoxia-inducible endogenous VEGF expression
Test: Hypoxia-inducible endogenous VEGF expression ELISA in HeLa cells, dose-response EC50 (Table 3)
Format: cell-based, human
Conditions: for EC50: HeLa, read-out: ELISA EC50 μM; for pEC50: HeLa cells, hypoxic conditions (1% O2), read-out: ELISA EC50
Summary of the method: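 HeLa cells kept 24-48 h under hypoxia (1% O2, 5% CO2, nitrogen balance) with or without compound, e.g. seven concentrations; secreted VEGF in conditioned medium quantified by ELISA against a standard curve. Parallel Cell Titer Glo viability under identical conditions excludes cytotoxicity.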

[1] = Homo sapiens, 24-48 hours, VEGF in conditioned media
[2] = Homo sapiens, VEGF ELISA of conditioned media

Structure (SMILES) | EC50 (Homo sapiens) [µM] | pEC50 [1] | other results
COCCN1CCN(C(=O)COc2ccc(C3c4[nH]c5ccc(Cl)cc5c4CCN3C(=O)Oc3ccc(F)cc3)cc2)CC1 (stereo not drawn) [Compound 1021] | 0.04 to 0.2 |  | 
O=C(Oc1ccc(Cl)cc1)N1CCc2c([nH]c3ccc(Cl)cc23)C1c1ccc(OCCCCN2CCCC2)cc1 (stereo not drawn) [Compound 698] | 0.008 to 0.04 |  | 
Cc1ccc(C2c3[nH]c4ccc(Br)cc4c3CCN2C(=O)Oc2ccc(F)cc2)cc1 (stereo not drawn) [Compound 403] |  |  | pEC50 (24-48 hours, VEGF in conditioned media): > 8.10
O=C(Oc1ccc(Cl)cc1)N1CCc2c([nH]c3ccc(Cl)cc23)[C@@H]1c1ccc(OC2CCN(CC[C@H](O)CO)CC2)cc1 [Compound 1703] | 0.2 to 1 |  | 
O=C(Oc1ccc(F)cc1)N1CCc2c([nH]c3ccc(Cl)cc23)C1c1ccc(OCCCCn2cncn2)cc1 (stereo not drawn) [Compound 743] |  | > 8.10 | 
CCN(CC)CC(O)COc1ccc(C2c3[nH]c4ccc(Cl)cc4c3CCN2C(=O)Oc2ccc(Cl)cc2)cc1 (stereo not drawn) [Compound 938] | < 0.008 |  | 
O=C(Oc1ccc([N+](=O)[O-])cc1)N1CCc2c([nH]c3ccc(Cl)cc23)C1c1ccc(OCC(O)CO)cc1 (stereo not drawn) [Compound 632] |  | 7.40 to 8.10 | 
COC(=O)c1ccc(C2c3[nH]c4ccc(Br)cc4c3CCN2C(=O)Oc2ccc(Cl)cc2)cc1 (stereo not drawn) [Compound 591] |  | > 8.10 | 
COCCN(CCCOc1ccc(C2c3[nH]c4ccc(Cl)cc4c3CCN2C(=O)Oc2ccc(Cl)cc2)cc1)CCOC (stereo not drawn) [Compound 916] | < 0.008 |  | 
CN1CCN(CCCCCCOc2ccc(C3c4[nH]c5ccc(Cl)cc5c4CCN3C(=O)Oc3ccc(Cl)cc3)cc2)CC1 (stereo not drawn) [Compound 788] | 0.008 to 0.04 |  | 
Cc1cc(N)nn1CCOc1ccc(C2c3[nH]c4ccc(Cl)cc4c3CCN2C(=O)Oc2ccc(Cl)cc2)cc1 (stereo not drawn) [Compound 1418] |  |  | pEC50 [2]: 7.40 to 8.10
CC(C)NCCCOc1ccc(C2c3[nH]c4ccc(Cl)cc4c3CCN2C(=O)Oc2ccc(Cl)cc2)cc1 (stereo not drawn) [Compound 953] | 0.008 to 0.04 |  | 
CN1CCN(CCCOc2ccc(C3c4[nH]c5ccc(Cl)cc5c4CCN3C(=O)Oc3ccc(F)cc3)cc2)CC1 (stereo not drawn) [Compound 993] | < 0.008 |  | 
O=C(Oc1ccccc1Cl)N1CCc2c([nH]c3ccc(Cl)cc23)C1c1ccc(OCC2OCCO2)cc1 (stereo not drawn) [Compound 1052] |  | 7.40 to 8.10 | 
O=C(Oc1ccc(Cl)cc1)N1CCc2c([nH]c3ccc(Cl)cc23)[C@@H]1c1ccc(OC[C@@H](O)CN2CCOCC2)cc1 [Compound 1071] | < 0.008 |  | 
COc1ccc(OC(=O)N2CCc3c([nH]c4ccc(Cl)cc34)C2c2ccc(OCCC3CCCN3C)cc2)cc1 (stereo not drawn) [Compound 1005] | 0.2 to 1 |  | 
Cc1ccc(OC(=O)N2CCc3c([nH]c4ccc(Cl)cc34)[C@@H]2c2ccc(OCCCn3cncn3)cc2)cc1 [Compound 1182] |  | > 8.10 | 
CS(=O)(=O)Cc1cnc(Oc2ccc([C@H]3c4[nH]c5ccc(Cl)cc5c4CCN3C(=O)Oc3ccc(Cl)cc3)cc2)s1 [Compound 1702] |  |  | pEC50 [2]: > 8.10
O=C(Oc1ccc(Cl)cc1)N1CCc2c([nH]c3ccc(Cl)cc23)[C@@H]1c1ccc(Oc2cnccn2)cc1 [Compound 1571] |  |  | pEC50 [2]: > 8.10
COc1ccc(OC(=O)N2CCc3c([nH]c4ccc(Cl)cc34)C2c2ccc(OCCCn3nccn3)cc2)cc1 (stereo not drawn) [Compound 1134] |  | > 8.10 | 
O=C(Oc1ccc(F)cc1)N1CCc2c([nH]c3ccc(Cl)cc23)C1c1ccc(OCCCCN2CCOCC2)cc1 (stereo not drawn) [Compound 738] | < 0.008 |  | 
O=C(Oc1ccc(Cl)cc1)N1CCc2c([nH]c3ccc(Cl)cc23)C1c1ccc(OCCCN2CCCC2)cc1 (stereo not drawn) [Compound 429] | < 0.008 |  | 
CCCOC(=O)NCC(O)COc1ccc(C2c3[nH]c4ccc(Cl)cc4c3CCN2C(=O)Oc2ccc(Cl)cc2)cc1 (stereo not drawn) [Compound 1563] |  |  | pEC50 [2]: 7.40 to 8.10
O=C(Oc1ccc(Cl)cc1)N1CCc2c([nH]c3ccc(Cl)cc23)[C@@H]1c1ccc(OCCCCl)cc1 [Compound 1128] |  | > 8.10 | 
COCCOCCOc1ccc(C2c3[nH]c4ccc(Cl)cc4c3CCN2C(=O)Oc2ccc(Cl)cc2)cc1 (stereo not drawn) [Compound 675] |  | 7.40 to 8.10 | 
CC(C)C(=O)NCC(O)CCOc1ccc([C@H]2c3[nH]c4ccc(Cl)cc4c3CCN2C(=O)Oc2ccc(Cl)cc2)cc1 (stereo partly drawn) [Compound 1626] |  |  | pEC50 [2]: > 8.10
O=C(Oc1ccc(Cl)cc1)N1CCc2c([nH]c3ccc(Cl)cc23)C1c1ccc(OCCO)cc1 (stereo not drawn) [Compound 571] |  | 6.00 to 6.70 | 
